Values of other authors, collected in patent US20170119783A1, “Method for Treating Cognitive Impairment Associated With Neurodegenerative Disorders” (priority 2014, published 2017).
Like-named read-outs stand apart in the source and are kept apart here.

Legend:
[1] = within the group of artemisinin analogs
[2] = system: Ehrlich ascots tumor cells
[3] = system: cancer cells; conditions: more effective for hepatoma and embryonic lung cells than human gastric cancer cells
[4] = system: Plasmodium falciparum
[5] = system: nucleic acid synthesis; conditions: relative to artemisinin

| Compound | efficacy against Ehrlich ascots tumor cells (in words) [2] | water solubility (in words) | ability to inhibit nucleic acid synthesis, times the activity of artemisinin [5] | further results |
| --- | --- | --- | --- | --- |
| C[C@@H]1[C@H](OCc2ccc(C(=O)O)cc2)O[C@@H]2O[C@@]3(C)CC[C@@H]4[C@@H](C)CC[C@@H]1[C@]24OO3 [Artelinic acid] | efficacy against Ehrlich ascots tumor cells | most water-soluble |  | stability (in words) [1]: most stable; water solubility (in words) (listed as artelinic acid): higher solubility in water |
| CO[C@H]1O[C@@H]2O[C@@]3(C)CC[C@H]4[C@H](C)CC[C@@H]([C@H]1C)[C@@]24OO3 [Artemether] |  | higher solubility in water |  |  |
| C[C@@H]1CC[C@H]2[C@@H](C)C(=O)O[C@@H]3O[C@@]4(C)CC[C@@H]1[C@]32OO4 [Artemisinin, (3R,5aS,6R,8aS,9R,12S,12aR)-octahydro-3,6,9-trimethyl-3,12-epoxy-12H-pyr-ano[4,3-j]-1,2-benzodioxepin-10(3H)-one] | efficacy against Ehrlich ascots tumor cells | poor water solubility |  | toxicity to cancer cells in vitro (in words) [3]: toxic to cancer cells in vitro |
| C[C@H]1[C@H](N2CCS(=O)(=O)CC2)O[C@@H]2O[C@@]3(C)CC[C@H]4[C@H](C)CC[C@@H]1[C@@]24OO3 [Artemisone] |  |  |  | antimalarial activity (in words) ([4]; Haynes et al. 2006): high antimalarial activity |
| C[C@H]1[C@@H](O)O[C@@H]2O[C@@]3(C)CC[C@H]4[C@H](C)CC[C@@H]1[C@@]24OO3 [Dihydroartemisinin] |  | higher solubility in water |  |  |
| CCO[C@H]1O[C@@H]2O[C@@]3(C)CC[C@H]4[C@H](C)CC[C@@H]([C@H]1C)[C@@]24OO3 [arteether] | efficacy against Ehrlich ascots tumor cells | higher solubility in water | 100 times |  |
| C[C@H]1[C@H](OC(=O)CCC(=O)O)O[C@@H]2O[C@@]3(C)CC[C@H]4[C@H](C)CC[C@@H]1[C@@]24OO3 [artesunate] |  |  | 100 times | antimalarial potency, times that of artemisinin ([4]; relative to artemisinin): 5.2 times |
| CCCOC(=O)OC1O[C@@H]2O[C@@]3(C)CC[C@H]4[C@H](C)CC[C@@H]([C@H]1C)[C@@]24OO3 (stereo partly shown) [propylcarbonate dihydroartemisinin] |  | higher solubility in water | 100 times |  |
| C[C@H]1[C@@H](OCc2ccc(C(=O)O)cc2)O[C@@H]2O[C@]3(C)CC[C@H]4[C@H](C)CC[C@@H]1[C@@]24OO3 [sodium artelinate] | efficacy against Ehrlich ascots tumor cells |  |  |  |
| C[C@H]1[C@H](OC(=O)CCC(=O)[O-])O[C@@H]2O[C@@]3(C)CC[C@H]4[C@H](C)CC[C@@H]1[C@@]24OO3.[Na+] [sodium artesunate] | efficacy against Ehrlich ascots tumor cells |  |  |  |
